{"source": "patent US20070293486A1", "about": "“Alpha-Keto Carbonyl Calpain Inhibitors” (SANTHERA PHARMACEUTICALS (SCHWEIZ) AG, priority 2004, published 2007)", "test_system": "utrophin protein levels in human DMD myotubes", "assay": "Utrophin Expression Assay in Human Myotubes", "type": "cell-based", "settings": "50 nM test compound", "procedure": "Utrophin induction was determined by a method which was similar to a method of 1. Courdier-Fruh et al., Neuromuscular Disord., 2002, 12, S95-S104. Primary human muscle cell cultures were prepared from muscle biopsies taken during orthopedic surgery from Duchenne patients (provided by the Association Francaise contre les Myopathies). Cultures were prepared and maintained according to standard protocols. Induction of utrophin expression in human DMD myotubes was assayed at 50 nM or 500 nM of test compound added in differentiation medium. Normalized utrophin protein levels are determined after 56 d of incubation by cell-based ELISA with a mouse monoclonal antibody to the aminoterminal portion of utrophin (NCL-DRP2, Novocastra Laboratories). For calibration, the cell density and differentiation was determined by absorbance measurements of the total dehydrogenase enzyme activity in each well using the calorimetric CellTiter 96®AQ One Solution Reagent Proliferation Assay (Promega) according to the manufacturer's recommendation. Subsequently, cells were fixed, washed, permeabilized with 0.5% (v/v) Triton X-100 and unspecific antibody binding-sites blocked by standard procedures. Utrophin protein levels were determined immunologically with utrophin-specific primary antibody and with an appropriate peroxidase-coupled secondary antibody (Jackson ImmunoResearch Laboratories) using QuantaBlu™ Fluorogenic Peroxidase Substrate Kit (Pierce) for detection. Fluorescence measurements were carried out with a multilabel counter (Wallac) at λex=355 nm and at λem=460 nm. The primary readout of this signal is presented in arbitrary units. For calibration, the arbitrary units representing the relative utrophin protein content of each well was divided by the corresponding cell-titer absorbance value to correct for cell density. For comparison between experiments, the cell-titer corrected readout for utrophin protein content in each well was expressed in percent of solvent treated control cultures (set to 100%), i.e. data are % utrophin protein levels compared to DMSO solvent (N=4)."}
{"molecule": "CCNC(=O)C(=O)C(Cc1ccc(OC)cc1)NC(=O)C(CC(C)C)NC(=O)C(Cc1cccc2ccccc12)NC(=O)CCCCC1CCSS1", "note": "(stereo not shown) [Example 637]", "values": [{"measurement": "UTR Induction @50 nM", "result": 121, "unit": "%"}]}
